Results as given in US11987566B2, “Nerve damage preventing and nerve protecting compounds, preparation method thereof, pharmaceutical composition thereof, and their use” (GENHEALTH PHARMA CO., LTD., priority 2022, dated 2024).

Columns and labels:
[1] = tested on: transient focal Middle Cerebral Artery Occlusion/Reperfusion model (MCAO/R model); test: Evaluation of the effect of preventing nerve damage: total infarct volume (TTC staining) in MCAO/R model; type: in vivo, male Sprague Dawley rat; settings: SD rat, 50 mg/kg intraperitoneal once 10 minutes before MCAO/R; 1 hour ischemia, 24 hours blood reperfusion; vehicle group 40.48
Procedure: Besides the foresaid experimental groups, only pure solvent used was treated as vehicle group, and a sham group, which was not administrated with any compound or solvent or with nylon monofilament to cause obstruction and ischemia, was also included. In this test example, transient focal Middle Cerebral Artery Occlusion/Reperfusion model (MCAO/R model) was adopted to simulate ischemic stroke for evaluating the subsequent nerve damage. Specifically, male Sprague Dawley rat (SD rat) was adopted and anaesthetized with 2% isoflurane, and then the right common carotid artery, external carotid artery and internal carotid artery were distinguished among them from the neck. Next, a nylon monofilament with length of 22 millimeters (mm), size number of 4/0 and capped with polysiloxane was inserted into the external carotid artery and along with the […] to the circle of Willis to induce obstruction and ischemia in the middle cerebral artery. After causing obstruction and ischemia for 1 hour, the nylon monofilament was removed to allow the blood recirculated to the brain, in other words, to undergo blood reperfusion. After blood reperfusion for 24 hours, the rat was sacrificed and the brain thereof was placed into a cooled 0.95% saline. […] Afterward, the sliced brain tissues were stained with a 4% […] solution, and then MacroPATH Digital Imaging System was used to record the images and the obtained images were analyzed by ImageJ 1.52a to count the infarct volume percent, which could represent the degree of nerve damage. The foresaid infarct volume percent was obtained by adding the values acquired by multiplying the proportion of infarct area of each sliced brain tissue with their thickness, and the proportion of infarct area was calculated by the equation: (B−A)/B×100%; wherein, “A” represented the undamaged area in the damaged cerebral hemisphere on the right side, and “B” represented the total area of the undamaged cerebral hemisphere on the left side. […]

[2] = tested on: transient focal Middle Cerebral Artery Occlusion/Reperfusion model (MCAO/R model); test: Neurobehavioral evaluation (Bederson classification) after MCAO/R; settings: Bederson Grade 0-4, SD rat, 50 mg/kg intraperitoneal, vehicle group 2.80

Structure (SMILES) | Total infarct volume percent (%) [1] [%] | Grade (neurobehavioral evaluation), time point of 0.5-hour after blood reperfusion [2] | Grade (neurobehavioral evaluation), time point of 1.5-hour after blood reperfusion [2] | Grade (neurobehavioral evaluation), time point of 24-hour after blood reperfusion ([2]; 24 hour after blood reperfusion)
COc1cc(CC=C(C)C)c(OC)c2c1OCO2 [Example 4] | 16.4 | 2.60 | 2.60 | –
COc1cc(COC(C)=O)c(OC)c2c1OCO2 [Example 3] | 17.13 | 2.80 | 2.60 | –
COc1c(C)c(CC=C(C)C)c(OC)c2c1OCO2 [Example 1] | 28.82 | 2.60 | 2.80 | 2.60
